Test results reported in patent US11780830B2, “Triazolone derivatives or salts thereof and pharmaceutical compositions comprising the same” (YUHAN CORPORATION, priority 2018, dated 2023).
Where a name gives a salt, the structure may show the parent alone.

Key:
Type in all cases: biochemical
[1] = biological target: T1, recombinant human VAP-1 (Homo sapiens, UniProt Q16853); test: Activity on recombinant human VAP-1, HRP-coupled Amplex Red hydrogen peroxide assay; settings: substrate 1 mM benzylamine; compound incubated with enzyme at 37° C. for 30 minutes; pH 7.4; read-out: Inhibitory Activity (IC50, nM) human VAP-1
T1 construct: purchased R&D systems
T1 sequence (Q16853 1-763): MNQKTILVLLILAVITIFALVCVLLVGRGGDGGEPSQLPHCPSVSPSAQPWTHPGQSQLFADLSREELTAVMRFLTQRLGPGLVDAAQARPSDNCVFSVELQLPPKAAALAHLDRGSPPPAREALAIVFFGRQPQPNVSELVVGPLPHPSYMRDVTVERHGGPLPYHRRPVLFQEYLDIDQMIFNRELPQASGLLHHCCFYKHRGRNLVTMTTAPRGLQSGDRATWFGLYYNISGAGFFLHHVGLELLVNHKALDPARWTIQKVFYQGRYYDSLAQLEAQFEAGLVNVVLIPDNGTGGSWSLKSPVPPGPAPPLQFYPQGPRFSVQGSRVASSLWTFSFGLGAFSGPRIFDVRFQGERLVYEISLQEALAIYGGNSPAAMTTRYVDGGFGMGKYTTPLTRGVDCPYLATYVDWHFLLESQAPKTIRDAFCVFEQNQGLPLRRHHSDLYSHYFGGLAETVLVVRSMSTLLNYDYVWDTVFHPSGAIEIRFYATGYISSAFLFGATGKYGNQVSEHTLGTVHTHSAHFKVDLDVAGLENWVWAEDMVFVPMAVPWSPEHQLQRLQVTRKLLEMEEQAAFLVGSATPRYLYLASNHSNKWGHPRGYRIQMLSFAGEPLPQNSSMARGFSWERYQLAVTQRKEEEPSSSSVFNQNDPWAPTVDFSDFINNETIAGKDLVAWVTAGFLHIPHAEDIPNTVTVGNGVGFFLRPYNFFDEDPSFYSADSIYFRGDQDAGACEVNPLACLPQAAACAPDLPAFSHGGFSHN
Outline: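 Enzyme in 50 mM sodium phosphate (pH 7.4) is exposed to test compound for 30 min at 37 °C. Benzylamine (1 mM) with HRP and Amplex Red then starts the reaction, and the fluorescence rate, relative to a DMSO-only control, gives IC50.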

[2] = biological target: T2, recombinant human DAO (diamine oxidase) (Homo sapiens, UniProt P19801); test: Activity on recombinant human DAO, method similar to the VAP-1 assay; settings: substrate 1 mM putrescine; read-out: Inhibitory Activity (IC50, nM) DAO
T2 construct: purchased R&D systems
T2 sequence (P19801 20-751): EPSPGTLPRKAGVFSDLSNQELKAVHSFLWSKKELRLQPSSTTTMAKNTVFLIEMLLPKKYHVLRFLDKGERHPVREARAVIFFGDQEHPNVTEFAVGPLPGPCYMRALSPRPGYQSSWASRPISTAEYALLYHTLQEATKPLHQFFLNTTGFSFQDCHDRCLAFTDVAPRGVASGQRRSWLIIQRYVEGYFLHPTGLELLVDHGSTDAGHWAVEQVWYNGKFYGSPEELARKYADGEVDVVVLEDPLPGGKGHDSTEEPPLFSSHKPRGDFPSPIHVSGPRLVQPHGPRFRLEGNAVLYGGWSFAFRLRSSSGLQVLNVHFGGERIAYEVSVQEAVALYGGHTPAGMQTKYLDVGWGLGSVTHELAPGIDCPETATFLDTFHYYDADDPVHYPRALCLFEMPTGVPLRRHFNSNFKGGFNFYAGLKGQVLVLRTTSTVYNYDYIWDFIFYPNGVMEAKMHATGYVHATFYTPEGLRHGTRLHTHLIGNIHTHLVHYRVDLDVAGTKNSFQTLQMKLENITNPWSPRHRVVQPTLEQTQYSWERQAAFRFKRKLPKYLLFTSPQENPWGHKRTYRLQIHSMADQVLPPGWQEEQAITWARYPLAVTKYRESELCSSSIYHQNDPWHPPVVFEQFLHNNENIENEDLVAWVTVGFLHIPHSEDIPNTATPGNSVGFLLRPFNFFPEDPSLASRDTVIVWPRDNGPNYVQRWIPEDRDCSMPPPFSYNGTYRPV
Outline: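 Inhibition of recombinant human diamine oxidase (DAO, R&D systems) was assessed by the same approach as the VAP-1 assay, using 1 mM putrescine as substrate. Hydrogen peroxide formed was detected through an HRP-coupled Amplex Red reaction yielding fluorescent resorufin, read at 544 nm excitation and 590 nm emission. IC50 values came from four-parameter logistic fitting in GraphPad Prism.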

[3] = biological target: T3, recombinant human MAO-B (monoamine oxidase-B) (Homo sapiens, UniProt P27338); test: Activity on recombinant human MAO-B, method similar to the VAP-1 assay; settings: substrate 1 mM benzylamine; read-out: Inhibitory Activity (IC50, nM) MAO-B
T3 construct: purchased Sigma-Aldrich
T3 sequence (P27338 1-520): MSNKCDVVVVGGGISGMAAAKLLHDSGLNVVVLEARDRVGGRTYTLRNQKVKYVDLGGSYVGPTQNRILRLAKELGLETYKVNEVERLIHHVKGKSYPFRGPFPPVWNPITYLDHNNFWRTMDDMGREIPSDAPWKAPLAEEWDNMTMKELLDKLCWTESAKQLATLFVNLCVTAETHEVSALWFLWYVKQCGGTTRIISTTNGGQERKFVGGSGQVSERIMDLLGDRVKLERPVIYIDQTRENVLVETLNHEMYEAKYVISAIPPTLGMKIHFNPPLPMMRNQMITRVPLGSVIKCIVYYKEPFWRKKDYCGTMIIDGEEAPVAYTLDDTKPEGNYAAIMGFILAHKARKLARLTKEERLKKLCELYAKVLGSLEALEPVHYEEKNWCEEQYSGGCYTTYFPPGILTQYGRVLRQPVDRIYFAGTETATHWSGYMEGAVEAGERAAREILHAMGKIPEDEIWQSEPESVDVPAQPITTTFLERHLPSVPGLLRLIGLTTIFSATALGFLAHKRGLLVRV
Outline: (§1)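 Enzyme in pH 7.4 phosphate buffer; 30 min, 37° C with compound (DMSO <1%); start with 200 uM Amplex Red + 1 U/mL HRP + tyramine 0.5 mM (MAO-A) or benzylamine 1 mM (MAO-B); kinetic read ex 544/em 590, 1-2 h; % rate decrease vs DMSO control → IC50, 4-parameter fit.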

[4] = biological target: T4, recombinant human MAO-A (monoamine oxidase-A) (Homo sapiens, UniProt P21397); test: Activity on recombinant human MAO-A, method similar to the VAP-1 assay; settings: substrate 0.5 mM tyramine; read-out: Inhibitory Activity (IC50, nM) MAO-A
T4 construct: purchased Sigma-Aldrich
T4 sequence (P21397 1-527): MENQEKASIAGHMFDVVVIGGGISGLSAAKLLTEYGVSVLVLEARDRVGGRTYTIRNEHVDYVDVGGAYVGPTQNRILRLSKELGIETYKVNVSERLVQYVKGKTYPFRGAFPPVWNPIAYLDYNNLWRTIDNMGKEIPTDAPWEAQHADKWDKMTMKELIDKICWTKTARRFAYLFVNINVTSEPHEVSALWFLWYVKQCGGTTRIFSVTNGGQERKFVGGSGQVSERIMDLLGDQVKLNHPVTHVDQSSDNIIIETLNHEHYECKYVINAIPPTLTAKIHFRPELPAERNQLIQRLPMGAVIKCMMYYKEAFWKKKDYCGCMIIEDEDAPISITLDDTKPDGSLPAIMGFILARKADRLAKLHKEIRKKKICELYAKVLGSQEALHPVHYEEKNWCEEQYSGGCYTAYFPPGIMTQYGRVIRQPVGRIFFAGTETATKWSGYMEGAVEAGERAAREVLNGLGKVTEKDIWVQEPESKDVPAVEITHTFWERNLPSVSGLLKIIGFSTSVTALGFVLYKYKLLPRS
Outline: as §1

Row | Compound | IC50 [1] [nM] | IC50 [2] [nM] | IC50 [3] [nM] | IC50 [4] [nM]
1 | NC/C(=C\F)Cn1ncn(Cc2ccc(-c3ccc4oc(=O)[nH]c4c3)s2)c1=O [Example 72, 5-[5-(1-[(2E)-2-(aminomethyl)-3-fluoroprop-2-en-1-yl]-5-oxo-1,5-dihydro-4H-1,2,4-triazol-4-ylmethyl)thiophen-2-yl]-1,3-benzooxazol-2(3H)-one hydrochloride] | 0.4 | 230 | < 10 | ≥ 100000
2 | CN1C(=O)Cc2cc(-c3ccc(Cn4cnn(C/C(=C/F)CN)c4=O)s3)cnc21 [Example 73, 5-[5-(1-[(2E)-2-(aminomethyl)-3-fluoroprop-2-en-1-yl]-5-oxo-1,5-dihydro-4H-1,2,4-triazol-4-ylmethyl)thiophen-2-yl]-1-methyl-1,3-dihydro-2H-pyrrolo[2,3-b]pyridin-2-one hydrochloride] | 0.2 | 93 | 6100 | > 100000
3 | NC/C(=C\F)Cn1ncn(Cc2ccc(-c3ccc4c(c3)C(=O)NCC4)s2)c1=O [Example 74, 7-[5-(1-[(2E)-2-(aminomethyl)-3-fluoroprop-2-en-1-yl]-5-oxo-1,5-dihydro-4H-1,2,4-triazol-4-ylmethyl)thiophen-2-yl]-3,4-dihydroisoquinolin-1(2H)-one hydrochloride] | 0.3 | 620 | > 10000 | > 100000
4 | NC/C(=C\F)Cn1ncn(Cc2ccc(-c3ccc4c(c3)CCC(=O)N4)s2)c1=O [Example 75, 6-[5-(1-[(2E)-2-(aminomethyl)-3-fluoroprop-2-en-1-yl]-5-oxo-1,5-dihydro-4H-1,2,4-triazol-4-ylmethyl)thiophen-2-yl]-3,4-dihydroquinolin-2(1H)-one hydrochloride] | 0.3 | 950 | 2600 | > 100000
5 | Cc1cc(-c2ccc(Cn3cnn(C/C(=C/F)CN)c3=O)s2)cc2c1NC(=O)CC2 [Example 77, 6-[5-(1-[(2E)-2-(aminomethyl)-3-fluoroprop-2-en-1-yl]-5-oxo-1,5-dihydro-4H-1,2,4-triazol-4-ylmethyl)thiophen-2-yl]-8-methyl-3,4-dihydroquinolin-2(1H)-one hydrochloride] | 0.2 | 460 | 1300 | > 100000
6 | Cc1cc(-c2ccc(Cn3cnn(C/C(=C/F)CN)c3=O)s2)cc2ccc(=O)[nH]c12 [Example 78, 6-[5-[[1-[(E)-2-(aminomethyl)-3-fluoro-allyl]-5-oxo-1,2,4-triazol-4-yl]methyl]-2-thienyl]-8-methyl-1H-quinolin-2-one] | 0.2 | 630 | 4800 | > 100000
7 | CN1C(=O)CCc2cc(-c3ccc(Cn4cnn(C/C(=C/F)CN)c4=O)s3)ccc21 [Example 79, 6-[5-(1-[(2E)-2-(aminomethyl)-3-fluoroprop-2-en-1-yl]-5-oxo-1,5-dihydro-4H-1,2,4-triazol-4-ylmethyl)thiophen-2-yl]-1-methyl-3,4-dihydroquinolin-2(1H)-one hydrochloride] | 0.1 | 210 | 1900 | > 100000
8 | NC/C(=C\F)Cn1ncn(Cc2ccc(-c3cc(F)c4c(c3)CCC(=O)N4)s2)c1=O [Example 80, 6-[5-[[1-[(E)-2-(aminomethyl)-3-fluoro-allyl]-5-oxo-1,2,4-triazol-4-yl]methyl]-2-thienyl]-8-fluoro-3,4-dihydro-1H-quinolin-2-one] | 0.2 | 380 | 6300 | > 100000
9 | NC/C(=C\F)Cn1ncn(Cc2ccc(-c3cc4c(c(C(F)(F)F)c3)NC(=O)CC4)s2)c1=O [Example 81, 6-[5-[[1-[(E)-2-(aminomethyl)-3-fluoro-allyl]-5-oxo-1,2,4-triazol-4-yl]methyl]-2-thienyl]-8-(trifluoromethyl)-3,4-dihydro-1H-quinolin-2-one] | 0.18 | 68 | 430 | > 100000
